Results: the supplement of paper PMC11414989

Tests used:
Conditions in all cases: exposure window: 6 hpf to 120 hpf, static, assay age: 120 hpf (5 dpf)
[1] = test system: Danio rerio larvae (Tropical 5D); assay: mean distance moved of exposed larvae, dark phase (µm per frame (1/25 s)); higher = more movement
Experimental: (§1)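 Larval photomotor response in Tropical 5D wild-type zebrafish. Larvae were statically exposed to each chemical from 6 hpf to 5 dpf in 96-well plates; morphologically abnormal larvae were excluded. At 120 hpf, larvae were tracked with Ethovision XT (25 frames/s) over the 2nd cycle of 3 min light and 3 min dark. Values are the mean movement metric of exposed larvae per phase; same-plate control means (plate-dependent baseline) are given as conditions.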

[2] = test system: Danio rerio larvae (Tropical 5D); assay: mean distance moved of exposed larvae, light phase (µm per frame (1/25 s)); higher = more movement
Experimental: as §1

[3] = test system: Danio rerio larvae (Tropical 5D); assay: mean angular velocity of exposed larvae, dark phase (angular velocity (unit not stated)); higher = more movement
Experimental: as §1

[4] = test system: Danio rerio larvae (Tropical 5D); assay: mean angular velocity of exposed larvae, light phase (angular velocity (unit not stated)); higher = more movement
Experimental: as §1

Structure (SMILES): CCN(CCOP(=O)(O)O)S(=O)(=O)C(F)(F)C(F)(F)C(F)(F)C(F)(F)C(F)(F)C(F)(F)C(F)(F)C(F)(F)F
- mean distance moved of exposed larvae ([1]; 0.25 µM): 23.4
- mean distance moved of exposed larvae ([2]; 0.25 µM): 3.01
- mean angular velocity of exposed larvae ([3]; 0.25 µM): 0.809
- mean angular velocity of exposed larvae ([4]; 0.25 µM): 0.169

Structure (SMILES): Cc1cccc2c1ccc1ccccc12 [1-Methylphenanthrene]
- mean distance moved of exposed larvae ([1]; 1 µM): 14.6
- mean distance moved of exposed larvae ([1]; 2.54 µM): 16.3
- mean distance moved of exposed larvae ([1]; 6.45 µM): 19.4
- mean distance moved of exposed larvae ([1]; 16.4 µM): 17.5
- mean distance moved of exposed larvae ([1]; 35 µM): 21.2
- mean distance moved of exposed larvae ([1]; 74.8 µM): 12.8
- mean distance moved of exposed larvae ([1]; 100 µM): 10.4
- mean distance moved of exposed larvae ([2]; 1 µM): 5.24
- mean distance moved of exposed larvae ([2]; 2.54 µM): 4.47
- mean distance moved of exposed larvae ([2]; 6.45 µM): 4.85
- mean distance moved of exposed larvae ([2]; 16.4 µM): 5.17
- mean distance moved of exposed larvae ([2]; 35 µM): 4.57
- mean distance moved of exposed larvae ([2]; 74.8 µM): 4.58
- mean distance moved of exposed larvae ([2]; 100 µM): 5.53
- mean angular velocity of exposed larvae ([3]; 1 µM): 0.432
- mean angular velocity of exposed larvae ([3]; 2.54 µM): 0.487
- mean angular velocity of exposed larvae ([3]; 6.45 µM): 0.604
- mean angular velocity of exposed larvae ([3]; 16.4 µM): 0.563
- mean angular velocity of exposed larvae ([3]; 35 µM): 0.642
- mean angular velocity of exposed larvae ([3]; 74.8 µM): 0.39
- mean angular velocity of exposed larvae ([3]; 100 µM): 0.294
- mean angular velocity of exposed larvae ([4]; 1 µM): 0.118
- mean angular velocity of exposed larvae ([4]; 2.54 µM): 0.119
- mean angular velocity of exposed larvae ([4]; 6.45 µM): 0.139
- mean angular velocity of exposed larvae ([4]; 16.4 µM): 0.133
- mean angular velocity of exposed larvae ([4]; 35 µM): 0.126
- mean angular velocity of exposed larvae ([4]; 74.8 µM): 0.12
- mean angular velocity of exposed larvae ([4]; 100 µM): 0.143

Structure (SMILES): NC(O)(C(F)(F)F)C(F)(F)F [2-Aminohexafluoropropan-2-ol]
- mean distance moved of exposed larvae ([1]; 0.015 µM): 17.5
- mean distance moved of exposed larvae ([1]; 0.046 µM): 11.4
- mean distance moved of exposed larvae ([1]; 0.14 µM): 13
- mean distance moved of exposed larvae ([1]; 0.41 µM): 13
- mean distance moved of exposed larvae ([1]; 1.23 µM): 6.93
- mean distance moved of exposed larvae ([1]; 3.7 µM): 18.8
- mean distance moved of exposed larvae ([1]; 11.1 µM): 11.2
- mean distance moved of exposed larvae ([1]; 33.3 µM): 18.3
- mean distance moved of exposed larvae ([1]; 66.5 µM): 14.6
- mean distance moved of exposed larvae ([1]; 100 µM): 27.2
- mean distance moved of exposed larvae ([2]; 0.015 µM): 1.1
- mean distance moved of exposed larvae ([2]; 0.046 µM): 0.932
- mean distance moved of exposed larvae ([2]; 0.14 µM): 0.925
- mean distance moved of exposed larvae ([2]; 0.41 µM): 0.917
- mean distance moved of exposed larvae ([2]; 1.23 µM): 0.251
- mean distance moved of exposed larvae ([2]; 3.7 µM): 1.12
- mean distance moved of exposed larvae ([2]; 11.1 µM): 0.717
- mean distance moved of exposed larvae ([2]; 33.3 µM): 1.18
- mean distance moved of exposed larvae ([2]; 66.5 µM): 0.668
- mean distance moved of exposed larvae ([2]; 100 µM): 0.989
- mean angular velocity of exposed larvae ([3]; 0.015 µM): 0.62
- mean angular velocity of exposed larvae ([3]; 0.046 µM): 0.444
- mean angular velocity of exposed larvae ([3]; 0.14 µM): 0.508
- mean angular velocity of exposed larvae ([3]; 0.41 µM): 0.552
- mean angular velocity of exposed larvae ([3]; 1.23 µM): 0.344
- mean angular velocity of exposed larvae ([3]; 3.7 µM): 0.702
- mean angular velocity of exposed larvae ([3]; 11.1 µM): 0.423
- mean angular velocity of exposed larvae ([3]; 33.3 µM): 0.702
- mean angular velocity of exposed larvae ([3]; 66.5 µM): 0.491
- mean angular velocity of exposed larvae ([3]; 100 µM): 0.969
- mean angular velocity of exposed larvae ([4]; 0.015 µM): 0.0444
- mean angular velocity of exposed larvae ([4]; 0.046 µM): 0.0195
- mean angular velocity of exposed larvae ([4]; 0.14 µM): 0.0424
- mean angular velocity of exposed larvae ([4]; 0.41 µM): 0.0293
- mean angular velocity of exposed larvae ([4]; 1.23 µM): 0.00969
- mean angular velocity of exposed larvae ([4]; 3.7 µM): 0.0543
- mean angular velocity of exposed larvae ([4]; 11.1 µM): 0.0181
- mean angular velocity of exposed larvae ([4]; 33.3 µM): 0.0369
- mean angular velocity of exposed larvae ([4]; 66.5 µM): 0.0243
- mean angular velocity of exposed larvae ([4]; 100 µM): 0.0458

Structure (SMILES): Cc1ccc2c(ccc3ccccc32)c1 [2-Methylphenanthrene]
- mean distance moved of exposed larvae ([1]; 1 µM): 16.4
- mean distance moved of exposed larvae ([1]; 2.54 µM): 12.1
- mean distance moved of exposed larvae ([1]; 6.45 µM): 15
- mean distance moved of exposed larvae ([1]; 16.4 µM): 15.5
- mean distance moved of exposed larvae ([1]; 35 µM): 16.9
- mean distance moved of exposed larvae ([1]; 74.8 µM): 13.3
- mean distance moved of exposed larvae ([1]; 100 µM): 13.2
- mean distance moved of exposed larvae ([2]; 1 µM): 2.38
- mean distance moved of exposed larvae ([2]; 2.54 µM): 1.4
- mean distance moved of exposed larvae ([2]; 6.45 µM): 1.73
- mean distance moved of exposed larvae ([2]; 16.4 µM): 2.82
- mean distance moved of exposed larvae ([2]; 35 µM): 1.74
- mean distance moved of exposed larvae ([2]; 74.8 µM): 2.4
- mean distance moved of exposed larvae ([2]; 100 µM): 1.83
- mean angular velocity of exposed larvae ([3]; 1 µM): 0.536
- mean angular velocity of exposed larvae ([3]; 2.54 µM): 0.424
- mean angular velocity of exposed larvae ([3]; 6.45 µM): 0.539
- mean angular velocity of exposed larvae ([3]; 16.4 µM): 0.592
- mean angular velocity of exposed larvae ([3]; 35 µM): 0.507
- mean angular velocity of exposed larvae ([3]; 74.8 µM): 0.473
- mean angular velocity of exposed larvae ([3]; 100 µM): 0.439
- mean angular velocity of exposed larvae ([4]; 1 µM): 0.0841
- mean angular velocity of exposed larvae ([4]; 2.54 µM): 0.0709
- mean angular velocity of exposed larvae ([4]; 6.45 µM): 0.0511
- mean angular velocity of exposed larvae ([4]; 16.4 µM): 0.126
- mean angular velocity of exposed larvae ([4]; 35 µM): 0.0754
- mean angular velocity of exposed larvae ([4]; 74.8 µM): 0.0848
- mean angular velocity of exposed larvae ([4]; 100 µM): 0.0583

Structure (SMILES): O=C(O)CCC(F)(F)C(F)(F)C(F)(F)C(F)(F)C(F)(F)C(F)(F)C(F)(F)F [3-Perfluoroheptyl propanoic acid]
- mean distance moved of exposed larvae ([1]; 0.25 µM): 12.1
- mean distance moved of exposed larvae ([2]; 0.25 µM): 1.75
- mean angular velocity of exposed larvae ([3]; 0.25 µM): 0.534
- mean angular velocity of exposed larvae ([4]; 0.25 µM): 0.0662

Structure (SMILES): O=C(O)CCC(F)(F)C(F)(F)C(F)(F)C(F)(F)C(F)(F)F [3-Perfluoropentyl propanoic acid]
- mean distance moved of exposed larvae ([1]; 0.25 µM): 14.9
- mean distance moved of exposed larvae ([2]; 0.25 µM): 1.49
- mean angular velocity of exposed larvae ([3]; 0.25 µM): 0.61
- mean angular velocity of exposed larvae ([4]; 0.25 µM): 0.0445

Structure (SMILES): O=P(O)(O)C(F)(F)C(F)(F)C(F)(F)C(F)(F)C(F)(F)C(F)(F)Cl [6-Chloroperfluorohexylphosphonic acid]
- mean distance moved of exposed larvae ([1]; 0.167 µM): 20.6
- mean distance moved of exposed larvae ([2]; 0.167 µM): 6.62
- mean angular velocity of exposed larvae ([3]; 0.167 µM): 0.789
- mean angular velocity of exposed larvae ([4]; 0.167 µM): 0.212

Structure (SMILES): O=P(O)(O)C(F)(F)C(F)(F)C(F)(F)C(F)(F)C(F)(F)C(F)(F)C(F)(F)C(F)(F)Cl [8-Chloroperfluorooctylphosphonic acid]
- mean distance moved of exposed larvae ([1]; 0.167 µM): 24.4
- mean distance moved of exposed larvae ([2]; 0.167 µM): 7.53
- mean angular velocity of exposed larvae ([3]; 0.167 µM): 0.9
- mean angular velocity of exposed larvae ([4]; 0.167 µM): 0.234
